Molecules are shown by their SMILES.

Experimental findings from patent publication US7728012B2, “Carboxamide compounds and their use as calpain inhibitors” (Abbott GmbH & Co. KG, priority 2006, dated 2010) are described below.

Holding throughout (type): biochemical
In assay [1] the target is T1, cathepsin K activated from recombinant human procathepsin K (Homo sapiens, UniProt P43235).
T1 construct: purchased Calbiochem 342001; host or cells: E. coli
T1 sequence (P43235 115-329): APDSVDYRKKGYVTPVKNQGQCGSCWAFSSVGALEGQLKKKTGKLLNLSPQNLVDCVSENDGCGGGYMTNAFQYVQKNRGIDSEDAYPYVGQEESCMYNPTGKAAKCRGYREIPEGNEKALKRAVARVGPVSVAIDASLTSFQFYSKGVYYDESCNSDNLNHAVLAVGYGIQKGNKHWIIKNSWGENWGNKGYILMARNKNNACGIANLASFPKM
Nature of the assay: Cathepsin K kinetic fluorescence enzyme inhibition assay. The conditions noted are these: selectivity ratio versus calpain I. How it is done:
(§1) The following solutions and buffers were employed: • HBS (for 40 ml): 800 μl M HEPES; 2.16 ml 100 mM KCl; 4.8 ml 1M NaCl; 3.59 ml 5% glucose; 60 μl μM MgSO4; 400 μl 100 mM Na pyruvate, 28.19 ml water; pH 7.2-7.5. • lysis buffer (for 20 ml): 400 μl M Tris pH 8.2; 2.74 ml 1M NaCl; 520 μl 0.5M EDTA; 2 ml 10% triton X-100; 0.8 ml (=1:25) CompletePlus (1 tablet/2 ml H2O); 200 μl 100 mM Pefabloc; 13.34 ml water, pH 8.2. • TBST (10×) (for 1 l): 100 mM Tris (12.1 g); 1.5M NaCl (87 g); 1% Tween 20 (10 g), adjusted to pH 8. I Enzyme Inhibition In Vitro: • Testing for blockade of the corresponding enzymic activities was carried out by means of kinetic fluorescence assays (excitation 390 nm, emission 460 nm). • Apparent Ki values were calculated from the experimentally determined IC50 values by the Cheng-Prussoff relation assuming a reversible competitive enzyme inhibition. The Km values of the substrates used under the assay conditions indicated above were: 90 μM (Z-Phe-Arg-AMC, cathepsin B), 10 μM (Z-Gly-Pro-Arg-AMC, cathepsin K), 2 μM (Z-Phe-Arg-AMC, cathepsin L), and 30 μM (Z-Val-Val-Arg-AMC, cathepsin S). • The indicated Ki values are averages of the inhibition constants calculated on the basis of 2 to 4 independent dose-effect plots.
(§2) The following assays were used: • 1. Calpain I: • 20 nM calpain-I—isolated from human erythrocytes (Calbiochem #208713), 100 μM Suc-Leu-Tyr-AMC (Bachem #1-1355) as substrate in buffer with 62 mM imidazole, 0.3 mM CaCl2, 0.10% CHAPS, 0.05% BSA, 1 mM DTT at pH 7.3 and room temperature. • 2. Cathepsin B: • 0.25 nM cathepsin B—isolated from human liver (Calbiochem #219362), 100 μM Z-Phe-Arg-AMC (Bachem #I-1160) as substrate 50 mM MES, 2 mM EDTA, 0.05% Brij 35, 2.5 mM L-cysteine, pH 6.0, room temperature. • 3. Cathepsin K: • 3 nM cathepsin K—activated from recombinant human procathepsin K from E. coli (Calbiochem #342001), 10 μM Z-Gly-Pro-Arg-AMC (Biomol #P-142) as substrate in 50 mM MES, 2 mM EDTA, 0.05% Brij 35, 2.5 mM L-cysteine, pH 6.0, room temperature. • 4. Cathepsin L: • 1 nM cathepsin L—isolated from human liver (Calbiochem #219402), 2 μM Z-Phe-Arg-AMC (Bachem #1-1160) as substrate in 50 mM MES, 2 mM EDTA, 0.05% Brij 35, 2.5 mM L-cysteine, pH 6.0, room temperature. • 5. Cathepsin S: • 0.5 nM recombinant human cathepsin S from E. coli (Calbiochem #219343), 20 μM Z-Val-Val-Arg-AMC (Bachem #1-1540) as substrate in 50 mM MES, 2 mM EDTA, 0.05% Brij 35, 2.5 mM L-cysteine, pH 6.0, room temperature. • The results of the in vitro determination are indicated in Table 1. The following abbreviations are used in Table 1: • The “Calpain activity” column, ++ stands for a calpain Ki (Ki(calpain)) of ≦40 nM and + means: 40 nM<Ki(Calpain)≦100 nM. • The “Sel. cat. B” column indicates the Ki(cathepsin B)/Ki(calpain) ratio. In this connection, ++ means a Ki(cathepsin B)/Ki(calpain) ratio of ≧30 and + means 10≦Ki(cathepsin B)/Ki(calpain)<30. • The “Sel. cat. K” column indicates the Ki(cathepsin K)/Ki(calpain) ratio. In this connection, ++ means a Ki(cathepsin K)/Ki(calpain) ratio of ≧30 and + means 10≦Ki(cathepsin K)/Ki(calpain)<30. • The “Sel. cat. L” column indicates the Ki(cathepsin L)/Ki(calpain) ratio. In this connection, ++ means a Ki(cathepsin L)/Ki(calpain) ratio of ≧50 and + means 30≦Ki(cathepsin L)/Ki(calpain)<50. • The “Sel. cat. S” column indicates the Ki(cathepsin S)/Ki(calpain) ratio. In this connection, ++ means a Ki(cathepsin S)/Ki(calpain) ratio of ≧100 and + means 50≦Ki(cathepsin S)/Ki(calpain)<100.

For assay [2], the target named is T2, calpain-I isolated from human erythrocytes (Homo sapiens, UniProt P07384).
T2 construct: calpain-I—isolated from human erythrocytes; purchased Calbiochem 208713; host or cells: human erythrocytes (tissue isolate)
T2 sequence (P07384 1-714): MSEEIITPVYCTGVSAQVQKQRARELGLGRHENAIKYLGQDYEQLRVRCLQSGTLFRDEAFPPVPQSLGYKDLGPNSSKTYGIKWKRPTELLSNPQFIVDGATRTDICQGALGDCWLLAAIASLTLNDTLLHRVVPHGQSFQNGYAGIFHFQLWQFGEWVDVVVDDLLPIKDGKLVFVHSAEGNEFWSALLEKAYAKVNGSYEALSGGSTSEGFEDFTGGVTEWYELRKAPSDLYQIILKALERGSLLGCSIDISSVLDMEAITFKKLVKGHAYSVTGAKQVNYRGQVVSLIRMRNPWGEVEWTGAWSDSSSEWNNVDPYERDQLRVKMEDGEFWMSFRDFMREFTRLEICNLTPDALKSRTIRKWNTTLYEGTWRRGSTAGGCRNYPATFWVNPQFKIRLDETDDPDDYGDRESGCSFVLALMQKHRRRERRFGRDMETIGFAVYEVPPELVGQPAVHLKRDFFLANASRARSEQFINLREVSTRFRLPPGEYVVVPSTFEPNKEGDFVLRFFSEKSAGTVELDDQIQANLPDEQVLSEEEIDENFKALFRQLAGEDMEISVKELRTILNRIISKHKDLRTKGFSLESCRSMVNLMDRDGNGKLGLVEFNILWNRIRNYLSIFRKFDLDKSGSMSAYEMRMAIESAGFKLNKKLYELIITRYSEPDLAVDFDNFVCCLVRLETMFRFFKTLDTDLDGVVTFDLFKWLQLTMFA
T2 sequence (P04632 1-268 partner): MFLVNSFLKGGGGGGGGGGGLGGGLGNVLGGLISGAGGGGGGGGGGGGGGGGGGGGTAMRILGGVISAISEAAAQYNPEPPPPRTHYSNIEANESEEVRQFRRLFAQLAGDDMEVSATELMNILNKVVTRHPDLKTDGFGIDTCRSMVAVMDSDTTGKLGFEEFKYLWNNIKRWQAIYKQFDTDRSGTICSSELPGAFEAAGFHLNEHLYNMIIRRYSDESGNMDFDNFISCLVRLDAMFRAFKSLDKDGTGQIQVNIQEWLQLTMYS
The assay can be described thus: Calpain I kinetic fluorescence enzyme inhibition assay. The conditions noted are these: apparent Ki from IC50 by Cheng-Prussoff; average of 2 to 4 dose-effect plots.

The target of assay [3] is T3, cathepsin L isolated from human liver (Homo sapiens, UniProt P07711).
T3 construct: cathepsin L—isolated from human liver; purchased Calbiochem 219402; host or cells: human liver (tissue isolate)
T3 sequence (P07711 114-333): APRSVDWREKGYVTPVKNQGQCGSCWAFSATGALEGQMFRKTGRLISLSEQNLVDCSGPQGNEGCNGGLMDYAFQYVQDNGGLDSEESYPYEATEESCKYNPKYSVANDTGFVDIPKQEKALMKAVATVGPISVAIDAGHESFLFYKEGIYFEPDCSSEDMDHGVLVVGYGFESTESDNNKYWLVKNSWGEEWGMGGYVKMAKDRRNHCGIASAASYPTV
The assay can be described thus: Cathepsin L kinetic fluorescence enzyme inhibition assay. The conditions noted are these: selectivity ratio versus calpain I. In short, it runs like this:
(§3)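 cat B 0.25 nM + Z-Phe-Arg-AMC 100 μM; cat L 1 nM + Z-Phe-Arg-AMC 2 μM; cat S 0.5 nM (E. coli-expressed) + Z-Val-Val-Arg-AMC 20 μM. 50 mM MES pH 6.0, 2.5 mM L-Cys, RT. Ex 390/em 460, kinetic; Ki app = Cheng-Prusoff from IC50, mean of 2–4 curves.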

Assay [4] addresses T4, recombinant human cathepsin S (Homo sapiens, UniProt P25774).
T4 construct: purchased Calbiochem 219343; host or cells: E. coli
Nature of the assay: Cathepsin S kinetic fluorescence enzyme inhibition assay. The settings on record: selectivity ratio versus calpain I. The method, boiled down:
as §3

Assay [5] has as its target T5, cathepsin B isolated from human liver (Homo sapiens, UniProt P07858).
T5 construct: cathepsin B—isolated from human liver; purchased Calbiochem 219362; host or cells: human liver (tissue isolate)
Nature of the assay: Cathepsin B kinetic fluorescence enzyme inhibition assay. The conditions noted are these: selectivity ratio versus calpain I. The method, then: as §1, §2

T4 sequence (P25774 115-331): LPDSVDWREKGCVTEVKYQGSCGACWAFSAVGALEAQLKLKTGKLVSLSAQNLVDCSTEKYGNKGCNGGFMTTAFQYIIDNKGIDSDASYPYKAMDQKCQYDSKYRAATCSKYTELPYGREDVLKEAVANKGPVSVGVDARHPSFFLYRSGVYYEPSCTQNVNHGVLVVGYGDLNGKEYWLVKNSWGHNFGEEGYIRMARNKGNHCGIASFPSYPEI

As to `Cl.NC(=O)C(=O)C(Cc1ccccc1)NC(=O)c1cccnc1-n1ccc(-c2ccc(N3CCOCC3)cc2)n1` (centres unmarked) [Example 29, N-(3-Amino-1-benzyl-2,3-dioxopropyl)-2-[3-(4-morpholin-4-ylphenyl)-1H-pyrazol-1-yl]nicotinamide hydrochloride], the “Sel cat. K (Ki(cathepsin K)/Ki(calpain) ratio)” value in assay [1] is reported as “+ (10≦Ki(cathepsin K)/Ki(calpain)<30)”. Also, in assay [2], the Ki is at most 40 nM. The “Sel cat. L (Ki(cathepsin L)/Ki(calpain) ratio)” value in assay [3] was “++ (Ki(cathepsin L)/Ki(calpain) ratio of ≧50)”. In assay [4], the “Sel cat. S (Ki(cathepsin S)/Ki(calpain) ratio)” value is “++ (Ki(cathepsin S)/Ki(calpain) ratio of ≧100)”.
Take `NC(=O)C(=O)C(CC1CCCCC1)NC(=O)c1cccnc1-n1ccc(-c2ccccc2)n1` (centres unmarked) [Example 66, N-[3-Amino-1-(cyclohexylmethyl)-2,3-dioxopropyl]-2-(3-phenyl-1H-pyrazol-1-yl)nicotinamide]: the “Sel cat. K (Ki(cathepsin K)/Ki(calpain) ratio)” value in assay [1] was “+ (10≦Ki(cathepsin K)/Ki(calpain)<30)”. For the same compound, the Ki in assay [2] was at most 40 nM. For the same compound, the “Sel cat. L (Ki(cathepsin L)/Ki(calpain) ratio)” value in assay [3] was “+ (30≦Ki(cathepsin L)/Ki(calpain)<50)”. Besides, in assay [4], the “Sel cat. S (Ki(cathepsin S)/Ki(calpain) ratio)” value was “++ (Ki(cathepsin S)/Ki(calpain) ratio of ≧100)”.
Consider `CN1CCN(c2ccc(-c3ccn(-c4ncccc4C(=O)NC(Cc4ccccc4)C(=O)C(N)=O)n3)cc2)CC1` (centres unmarked) [Example 68, N-(3-Amino-1-benzyl-2,3-dioxopropyl)-2-{3-[4-(4-methylpiperazin-1-yl)phenyl]-1H-pyrazol-1-yl}nicotinamide], for which the “Sel cat. K (Ki(cathepsin K)/Ki(calpain) ratio)” value in assay [1] is recorded as “+ (10≦Ki(cathepsin K)/Ki(calpain)<30)”. In addition, the Ki in assay [2] lay within 40 to 100 nM. Also, the “Sel cat. S (Ki(cathepsin S)/Ki(calpain) ratio)” value in assay [4] is reported as “++ (Ki(cathepsin S)/Ki(calpain) ratio of ≧100)”.
`NC(=O)C(=O)C(Cc1ccccc1)NC(=O)c1cccnc1-n1ccc(-c2cccc(N3CCCC3)c2)n1` (centres unmarked) [Example 74, N-(3-Amino-1-benzyl-2,3-dioxopropyl)-2-[3-(3-pyrrolidin-1-ylphenyl)-1H-pyrazol-1-yl]nicotinamide]: the “Sel cat. K (Ki(cathepsin K)/Ki(calpain) ratio)” value in assay [1] was “++ (Ki(cathepsin K)/Ki(calpain) ratio of ≧30)”. Also, the “Sel cat. B (Ki(cathepsin B)/Ki(calpain) ratio)” value in assay [5] was “++ (Ki(cathepsin B)/Ki(calpain) ratio of ≧30)”. The Ki in assay [2] was at most 40 nM. The “Sel cat. S (Ki(cathepsin S)/Ki(calpain) ratio)” value in assay [4] is reported as “++ (Ki(cathepsin S)/Ki(calpain) ratio of ≧100)”.
Turning to `NC(=O)C(=O)C(Cc1ccccc1)NC(=O)c1cccnc1-n1ccc(-c2ccc3c(c2)CCO3)n1` (centres unmarked) [Example 75, N-(3-Amino-1-benzyl-2,3-dioxopropyl)-2-[3-(2,3-dihydrobenzo[b]furan-5-yl)-1H-pyrazol-1-yl]nicotinamide], the “Sel cat. K (Ki(cathepsin K)/Ki(calpain) ratio)” value in assay [1] was “+ (10≦Ki(cathepsin K)/Ki(calpain)<30)”. Also, the Ki in assay [2] was in the range of 40 to 100 nM. In addition, the “Sel cat. L (Ki(cathepsin L)/Ki(calpain) ratio)” value in assay [3] is reported as “++ (Ki(cathepsin L)/Ki(calpain) ratio of ≧50)”. Also, in assay [4], the “Sel cat. S (Ki(cathepsin S)/Ki(calpain) ratio)” value was “++ (Ki(cathepsin S)/Ki(calpain) ratio of ≧100)”.
As to `N#Cc1cnc(-n2ccc(-c3ccccc3F)n2)c(C(=O)NC(Cc2ccccc2)C(=O)C(N)=O)c1` (centres unmarked) [Example 188, N-[3-Amino-2,3-dioxo-1-(phenylmethyl)propyl]-5-cyano-2-[3-(2-fluorophenyl)-1H-pyrazol-1-yl]pyridine-3-carboxamide], the “Sel cat. K (Ki(cathepsin K)/Ki(calpain) ratio)” value in assay [1] is listed as “++ (Ki(cathepsin K)/Ki(calpain) ratio of ≧30)”. Further, the Ki in assay [2] lay within 40 to 100 nM. Further, the “Sel cat. L (Ki(cathepsin L)/Ki(calpain) ratio)” value in assay [3] is “++ (Ki(cathepsin L)/Ki(calpain) ratio of ≧50)”.
As to `NC(=O)C(=O)C(Cc1ccccc1)NC(=O)c1cccnc1-n1ccc(C2CCCCC2)n1` (centres unmarked) [Example 192, N-[3-Amino-2,3-dioxo-1-(phenylmethyl)propyl]-2-(3-cyclohexyl-1H-pyrazol-1-yl)pyridine-3-carboxamide], the “Sel cat. K (Ki(cathepsin K)/Ki(calpain) ratio)” value in assay [1] is on record as “+ (10≦Ki(cathepsin K)/Ki(calpain)<30)”. In addition, the Ki in assay [2] fell in the range of 40 to 100 nM. Also, in assay [3], the “Sel cat. L (Ki(cathepsin L)/Ki(calpain) ratio)” value is “++ (Ki(cathepsin L)/Ki(calpain) ratio of ≧50)”. Further, the “Sel cat. S (Ki(cathepsin S)/Ki(calpain) ratio)” value in assay [4] is “++ (Ki(cathepsin S)/Ki(calpain) ratio of ≧100)”.
